Reference: ChEMBL document CHEMBL4130450, “Mixed Aryl Phosphonate Prodrugs of a Butyrophilin Ligand” (ACS Med Chem Lett, 2017)
pEC50: −log10 of the molar value. The source made the active and inactive calls. The calls are words filed in the database; no cut-off is given here.

Tests used:
[1] = biological target: T1, Butyrophilin subfamily 3 member A1 (Homo sapiens, UniProt O00481); assay: Binding affinity to BTN3A1 intracellular domain (unknown origin) at 250 uM by isothermal titration calorimetry
Target sequence in this assay (O00481 30-513 limits assumed): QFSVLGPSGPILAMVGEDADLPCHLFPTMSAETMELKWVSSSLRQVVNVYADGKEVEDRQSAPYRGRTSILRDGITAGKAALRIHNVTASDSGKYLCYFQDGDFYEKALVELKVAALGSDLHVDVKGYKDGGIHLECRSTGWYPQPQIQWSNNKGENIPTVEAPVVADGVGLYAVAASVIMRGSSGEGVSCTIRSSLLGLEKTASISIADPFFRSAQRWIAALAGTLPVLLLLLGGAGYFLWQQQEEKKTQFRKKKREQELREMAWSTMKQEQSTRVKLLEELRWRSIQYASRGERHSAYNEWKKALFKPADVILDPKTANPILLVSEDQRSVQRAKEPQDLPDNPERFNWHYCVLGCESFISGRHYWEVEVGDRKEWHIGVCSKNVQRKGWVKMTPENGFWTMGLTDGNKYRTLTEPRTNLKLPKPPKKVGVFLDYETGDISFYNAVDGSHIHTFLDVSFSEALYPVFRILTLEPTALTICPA

[2] = biological target: T1, Butyrophilin subfamily 3 member A1; assay: Activation of BTN3A1 in human PBMC-derived Vgamma9Vdelta2 T cells assessed as induction of interferon gamma production in response to K562 cells preincubated for 4 hrs […] followed by 11 days incubation post compound wash out with subsequent coculturing with Vgamma9Vdelta2 T cells for 20 hrs by ELISA; assay type: cell-based
Target sequence in this assay (O00481 whole entry, the tested form may be a part): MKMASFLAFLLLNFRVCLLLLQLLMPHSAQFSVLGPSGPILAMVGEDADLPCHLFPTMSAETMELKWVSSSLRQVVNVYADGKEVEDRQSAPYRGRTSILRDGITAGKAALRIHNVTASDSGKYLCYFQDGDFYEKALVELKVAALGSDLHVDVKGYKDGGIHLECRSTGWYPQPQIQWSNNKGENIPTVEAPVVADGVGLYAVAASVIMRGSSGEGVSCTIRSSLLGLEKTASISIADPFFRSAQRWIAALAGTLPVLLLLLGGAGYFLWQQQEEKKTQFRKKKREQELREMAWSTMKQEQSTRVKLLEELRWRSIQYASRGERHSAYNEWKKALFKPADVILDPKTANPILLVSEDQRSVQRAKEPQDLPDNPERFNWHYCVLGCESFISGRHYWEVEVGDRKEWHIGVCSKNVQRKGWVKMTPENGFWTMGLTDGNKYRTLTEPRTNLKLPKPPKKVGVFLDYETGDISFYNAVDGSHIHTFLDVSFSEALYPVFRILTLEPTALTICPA

[3] = Activation of BTN3A1 in human PBMC-derived Vgamma9Vdelta2 T cells assessed as induction of interleukin 2 stimulated cell proliferation by measuring increase in CD3 positive cells incubated for 3 days followed by 11 days incubation post compound wash out with subsequent stimulation with IL-2 every 3 days measured after 14 days by flow cytometry
[4] = biological target: T1, Butyrophilin subfamily 3 member A1; assay: Inhibition of HMBPP binding to BTN3A1 intracellular domain (unknown origin) at compound to HMBPP molar ratio of 100 by isothermal titration calorimetry
Target sequence in this assay (O00481 30-513 limits assumed): as the sequence (O00481 30-513 limits assumed) above

Structure (SMILES)	Activity [1]	pEC50 [2]	further results
C/C(=C\CCP(=O)(O)Oc1ccccc1)CO	inactive		
C/C(=C\CCP(=O)(COC(=O)C(C)(C)C)OCOC(=O)C(C)(C)C)CO (stereo unspecified)		7.62	
C/C(=C\CCP(=O)(O)O)CO			pEC50 [3]: 5.40
C/C(=C\CCP(=O)(O)Oc1cccc2ccccc12)CO	inactive		inhibition [4]: inactive
C/C(=C\CCP(=O)(COC(=O)C(C)(C)C)Oc1cccc2ccccc12)CO (stereo unspecified)		8.05	
